Patent US20100150948A1, “MATERIALS AND METHODS FOR IMPROVED IMMUNOGLYCOPROTEINS” (TRUBION PHARMACEUTICALS, INC., priority 2006, published 2010)

Key:
[1] = system: CD16 (low affinity allele); assay: Binding to soluble FcγR-MIg fusion on WIL2-S cells, flow cytometry; conditions: 0, 2, 5, 10, 30 or 100 μg/mL castanospermine in culture media
Procedure: The immunoglycoproteins produced according to Example 2 were assayed in vitro for binding to soluble Ig-fusion versions of Fcγ receptors, in which the extracellular domain of a receptor is fused to murine IgG2a Fc.
The soluble Fey receptor materials were generated by fusing the extracellular domain of Fcγ Receptors I (Genbank Acc. No. BC032634), IIa (Genbank Acc. No. NM_021642), IIb (Genbank Acc. No. BC031992), and III-V158 (high affinity allele) (Genbank Acc. No. X07934) and III-F158 (low affinity allele), respectively, to a murine IgG2a Fc with a Pro to Ser mutation at residue 238 (MIgG2aP238S). For both forms of Fcγ RIII (CD16), an HE4 leader was cloned onto CD16 amino acids 1-178 and then fused to MIgG2aP238S.
The assays were carried out as follows. […] The cells were then incubated with the desired FcγR-MIg fusion in the same diluent at a concentration of 1 μg/ml on ice for 45 minutes.
The complexes (WIL2-S cells/SMIP/FcγR-MIg) were then incubated with PE conjugated AffiniPure F(Ab')2 Goat Anti-Mouse IgG [Jackson Immunoresearch] (a mouse Fc-specific antibody with minimal cross reactivity with human Fc) at a 1:100 dilution. The cells were analyzed by one-color flow cytometry on a FACsCalibur using CellQuest software (Becton Dickinson).

[2] = system: CHO cells expressing TRU-016; assay: Culturing CHO host cells with carbohydrate modifier: cell growth and viability; type: cell-based, Chinese hamster; conditions: castanospermine up to 1000 μM, all time periods up to 144 hours
Procedure: For shake flask runs, log phase host cells were seeded in shake flasks at 100,000 cells/ml with carbohydrate modifier at the concentration to be tested, and optionally with methotrexate (MTX) @ 50 nM
Cells were seeded at 3×10E6/mL in 1350 mL of Ex-Cell 302 culture media (SATC Biosciences; with added non-essential amino acids, pyrucate, L-glutamine, pen/strep, HT Supplement and insulin, all from Invitrogen) at t=0 and brought to 5 L total volume at T>=72 hours. The cells were incubated at 37° C. and 5% carbon dioxide and monitored for growth and viability daily starting at day 6-7. Supernatants were typically harvested at day 10-12 when cell viability dropped below 60%.
Na-Azide was added to 0.02%, cells were removed by centrifugation and supernatant was filter sterilized through a 0.22 uM filter. Some assays described in other examples herein were performed on the supernatants as indicated, while other assays were performed on material that underwent further protein A purification. […] Cells were incubated at 37° C. and 5% carbon dioxide and monitored daily for growth and viability. […]

Ramos B cells = assay: CDC activity, propidium iodide flow cytometry with human serum; type: cell-based; conditions: TRU-016 from CHO cells cultured with 200 μM DMJ, 10 μM kifenunsine or 200 μM castanospermine
Procedure: To determine the CDC activity of TRU-016 purified protein produced according to Example 2, Ramos B cells were suspended in Iscoves (Gibco/Invitrogen, Grand Island, N.Y.) at 5×10^5 cells/well in 75 μl. TRU-016 (75 μl) were added to the cells at twice the concentrations indicated. Binding reactions were allowed to proceed for 45 minutes prior to centrifugation and washing in serum-free Iscoves. Cells were resuspended in Iscoves with human serum (containing complement) at various concentrations. The cells were incubated 60 minutes at 37° C. Cells were washed by centrifugation and resuspended in staining media with 0.5 μg/ml propidium iodide. Samples were incubated 15 minutes at room temperature in the dark prior to analysis by flow cytometry using a FACsCalibur and CellQuest software (Becton Dickinson).

Ramos cells = assay: Ramos tumor model in nude mice; type: in vivo; conditions: TRU-016 from CHO cells treated with 200 μM DMJ, 10 μM kifenunsine or 200 μM castanospermine; 200 μg i.v.
Procedure: Nude mice are administered 5×10^6 Ramos cells subcutaneously on day 0 and injected intravenously with 200 μg control human IgG or TRU-016 test protein produced by CHO cells treated with 200 μM DMJ, 10 μM kifenunsine or 200 μM castanospermine on days 0, 2, 4, 6, and 8. Mice typically develop tumors within 6 days and die shortly thereafter. Tumors are measured three times weekly with digital calipers and LabCat software, and tumor volume is calculated as […]. Body weight is also determined once a week.
Mice are sacrificed when the tumor reaches 1500 mm^3 in size (1200 mm^3 on Fridays). Mice are also sacrificed if ulceration of a tumor occurs, the tumor inhibits the mobility of animal, or if weight loss equals or exceeds 20%.

[3] = set-up: species or system BALB/c mice; conditions: mouse, in vivo, iv, 200 ug
Procedure: Female BALB/c mice were injected i.v. with 200 μg of TRU-016 test protein (TRU-016 produced by untreated CHO cells or by CHO cells treated with 200 μM DMJ, […] or 200 μM castanospermine) at time 0. Serum samples were collected (3 mice per time point) at 15 min, 2, 6, 24, 48, 72, 96, and 192 hours post injection. The serum concentration of each TRU-016 test sample was determined in a FACS-based binding assay using the CD37+ Ramos human cell line. CD37+ Ramos cells (5×10^5 cells/well) were incubated in 96 well flat bottom plates along with the serum sample to be tested. Spiked serum samples were used for the standard curves. Cells were incubated at 4° C. for an hour and washed before addition of the detection antibody. Binding of TRU-016 test protein to CD37+ Ramos cells was detected using a fluorescein-conjugated goat anti-human IgG Fcγ fragment-specific antibody. Standard curves were used to construct a binding curve as a function of antigen concentration. Briefly, standard curves consisted of various known concentrations of the TRU-016 test protein spiked into normal mouse serum diluted 1:20 in FACS buffer. The standard curves were run in duplicate on each plate. Mean fluorescence intensities (MFI) from the FACS analysis were imported into Softmax Pro software and were used to calculate serum concentrations of the TRU-016 test protein.

Molecule	CD16 binding (geometric mean fluorescence intensity) of TRU-015 purified protein produced by CHO cells cultured with the modifier [1]	cell counts [2]	percent cell viability [2]	CDC compared with protein produced by untreated CHO cells (Ramos B cells)	mean survival time (Ramos cells)	tumor volume (Ramos cells)	effect of carbohydrate modifier on half-life or other pharmacokinetic parameters [3]
O[C@H]1[C@H](O)[C@@H](O)CN2CC[C@H](O)[C@H]12 [castanospermine]	dose-dependent increase	did not affect	did not affect				
TRU-016: recombinant single chain protein (SMIP) that binds CD37; G28-1 binding domain, modified hinge, human IgG1 CH2 and CH3; SEQ ID NO: 2				similar	increase mean survival time	reduce tumor volume	no significant effect
